Experimental data from ChEMBL document CHEMBL1201862, “PubChem BioAssay data set” (2004).
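Each compound was tested at five concentrations against cells in 96-well plates for 48 hours. GI50 marks 50% less growth.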 The source made the active and inactive calls. No stated cut-off is given here; in the data, active = GI50 up to about 1.1 µM and inactive = higher.

Experiments:
Test in all cases: growth of human tumour cells (NCI), 48 h
[1] = test system: OVCAR-8
[2] = test system: SNB-75
[3] = test system: MCF7
[4] = test system: COLO 205
[5] = test system: ACHN
[6] = test system: HOP-62
[7] = test system: A549
[8] = test system: M14
[9] = test system: MDA-MB-435
[10] = test system: EKVX
[11] = test system: OVCAR-4
[12] = test system: UACC-62
[13] = test system: T47D
[14] = test system: SF-295
[15] = test system: Malme-3M
[16] = test system: IGROV-1
[17] = test system: HT-29
[18] = test system: SF-539
[19] = test system: NCI-H522
[20] = test system: SR

Measured: GI50

CN(C)C(=O)C(F)(F)C(c1ccc(F)cc1)C1C(=O)N(C)C(=O)N(C)C1=O (configuration not stated)
inactive: [1] > 100 µM | [2] > 100 µM | [3] > 100 µM | [4] > 100 µM | [5] > 100 µM | [6] > 100 µM | [7] > 100 µM | [8] > 100 µM | [9] > 100 µM | [10] > 100 µM | [11] > 100 µM | [12] > 100 µM | [13] > 100 µM | [14] > 100 µM

O=C(OCc1ccccc1CN1CCOCC1)c1cccc(Br)c1
inactive: [15] 21.7 µM | [1] 44.5 µM | [16] 19.7 µM | [2] 31.2 µM | [3] 37 µM | [4] 39.4 µM | [17] 16 µM | [5] 63.1 µM | [6] 53.2 µM | [7] 28.7 µM | [8] 36.9 µM | [18] 43.6 µM | [19] 20.9 µM | [9] > 100 µM | [10] 34.5 µM | [11] 20.9 µM | [12] 33.6 µM | [13] 18.7 µM

COc1cc(C2SCC(=O)N2c2ccc(-n3c(-c4ccccc4)nc4ccccc4c3=O)cc2)ccc1O (configuration not stated)
inactive: [15] 54.7 µM | [1] > 100 µM | [16] > 10 µM | [3] 70 µM | [4] > 100 µM | [17] > 100 µM | [5] > 100 µM | [6] > 100 µM | [7] 74.8 µM | [8] > 100 µM | [18] > 100 µM | [20] 26 µM | [19] 33 µM | [9] > 100 µM | [10] > 100 µM | [11] 65.6 µM | [12] 26.1 µM | [13] 30 µM | [14] 84.5 µM

C=CCN1CC2CN=NC2(C#N)C1 (configuration not stated)
inactive: [15] > 100 µM | [1] > 100 µM | [16] > 100 µM | [2] > 100 µM | [3] > 100 µM | [4] > 100 µM | [17] > 100 µM | [5] > 100 µM | [6] > 100 µM | [7] > 100 µM | [20] > 100 µM | [19] > 100 µM | [9] > 100 µM | [10] > 100 µM | [11] > 100 µM | [12] > 100 µM | [13] > 100 µM | [14] > 100 µM

COc1cc2c(cc1OC)C(=O)N(c1ccc(OCCN3CCCC3)cc1)C2=O
inactive: [15] 20.8 µM | [1] > 100 µM | [16] > 100 µM | [3] > 100 µM | [4] > 100 µM | [17] > 100 µM | [5] > 100 µM | [6] > 100 µM | [7] > 100 µM | [8] > 100 µM | [18] > 100 µM | [20] > 100 µM | [19] > 100 µM | [9] > 100 µM | [10] > 100 µM | [11] > 100 µM | [12] > 100 µM | [13] > 100 µM | [14] > 100 µM

COc1c2c(cc3c1C(=O)c1c(O)cccc1C3=O)CC(O)CC2 (configuration not stated)
inactive: [15] 49.8 µM | [1] 40.5 µM | [16] 85.5 µM | [2] 34.8 µM | [3] > 100 µM | [4] > 100 µM | [17] > 100 µM | [5] 23.6 µM | [6] 19.3 µM | [7] > 100 µM | [8] 32 µM | [18] 28.8 µM | [9] > 100 µM | [10] 29.8 µM | [11] > 100 µM | [12] 28.5 µM | [13] 7.18 µM | [14] 19.2 µM

CCOC(=O)C(C(=O)OCC)C1C=CCC2c3ccccc3COCC21 (configuration not stated)
inactive: [15] 31.7 µM | [1] 44.2 µM | [16] 75.5 µM | [2] 96.6 µM | [3] 31.8 µM | [4] 23.7 µM | [17] 54.7 µM | [5] 40.2 µM | [6] > 100 µM | [7] 66.5 µM | [8] 49.9 µM | [18] > 100 µM | [19] 24.5 µM | [9] 36.9 µM | [10] 40.5 µM | [11] 28.6 µM | [12] 26.1 µM | [13] 30.2 µM | [14] 43.6 µM

CCC(=N\NC(N)=S)/C(C)=N/O
inactive: [15] > 100 µM | [1] > 100 µM | [16] > 100 µM | [3] > 100 µM | [4] > 100 µM | [17] > 100 µM | [5] > 100 µM | [6] > 100 µM | [7] > 100 µM | [8] > 100 µM | [18] > 100 µM | [9] > 100 µM | [10] > 100 µM | [11] > 100 µM | [12] > 100 µM | [13] > 100 µM | [14] > 100 µM
